Measured values: patent publication US7056491B2, “Monoterpenes and sesquiterpenes as chemotherapeutic and radiation sensitizers and immunomodulators” (Wisconsin Alumni Research Foundation, priority 2000, dated 2006)
Read-outs that look alike come from different tables or passages of the source.

Assays:
[1] = test system: DU145 prostate cancer cells; experiment: Clonogenic survival assay, POH with or without radiation, DU145; type: cell-based, human
Experimental: (§1) Subconfluent cultures of prostate cancer cell line DU145 were treated with 0.1–0.5 mM of POH for 72 hours and subsequently to increasing doses of radiation from 0.1 Gy to 8.5 Gy. Control cells were treated with the indicated doses of radiation alone. The cells were harvested and an optimum number of cells were allowed to grow for 14 days. The resulting colonies were stained and counted. Each graphed point represents mean values ± SE values of triplicate dishes.
(§2) Table 1 summarizing data from different cell lines treated with radiation, radiation plus POH, and POH alone. Subconfluent cultures of human glioma (T98G, M059K, U251), prostate (DU145, PC3), colon (DLD-1, HT29) and pancreatic (MIAPACA) cancer cell lines were treated with 0.1–0.5 mM of POH for 72 hours and subsequently to increasing doses of radiation from 0.1 Gy to 8.5 Gy. Control cells were treated with medium alone. The cells were harvested and an optimum number of cells were allowed to grow for 14 days. The resulting colonies were stained and counted. Each graphed point represents mean values ± SE values of triplicate dishes. Percentage survival was determined as the ratio of plating efficiencies for each irradiated group to that of the unirradiated control.

[2] = test system: PC3 prostate cancer cells; experiment: Clonogenic survival assay, POH with or without radiation, PC3; type: cell-based, human
Experimental: as §1, with “FIGS. 2–14 illustrates additional work with other monoterpenes and cell lines. […] Subconfluent” for “Subconfluent”, “cultures” for “cultures of”, “PC3” for “DU145”, “growth” for “grow”
as §2

DLD-1 colon cancer cells = experiment: Clonogenic survival assay, POH with or without radiation, DLD-1; type: cell-based, human
Experimental: as §2

[3] = test system: glioma and prostate cancer cell lines; experiment: Apoptosis by dual colored (PI and Annexin V) flow cytometry; type: cell-based, human; settings: 1 mM POH, 72 hours
Experimental: Glioma (T98G, U251, U353, U87 and MO59K) and prostate (DU145, PC3) cell lines were treated with or without 1 mM perillyl alcohol (POH) for 72 hours. The cells were harvested by trypsinization washed with PBS and subsequently staimed with antibody to annexin V conjugated to FITC and with PI (10 μg/ml). Viable (annexin V^−/PI^−) pre-apoptotic (annexin V^+/PI^−), apoptotic (annexin V^+/PI^+), and the residual damaged (annexin V^−/PI^+) cells were quantitated using this protocol.

[4] = test system: glioma, prostate, melanoma and colon cell lines; experiment: Cell cycle analysis by propidium iodide flow cytometry; type: cell-based; settings: 1 mM POH 72 hours
Experimental: The indicated glioma (T98G, U251, U87, C6, U353 and MO59K), prostate (DU145 and PC3) melanoma (Mel5 and M21) and colon (DLD-1, HT29) cell lines were treated with medium or with 1 mM of POH dissolved in medium for 72 hours. The cells were harvested, fixed stained with propidium iodide and analyzed by flow cytometry to estimate the various phases of the cell cycle. Each point on the graph represents mean values of duplicate dishes.

[5] = test system: glioma and prostate cancer cell lines; experiment: Augmentation of CD95 (Fas)-mediated apoptosis with anti-CD95 antibody CH11; type: cell-based; settings: T98G, U87, U353, U251; 1 mM POH with CH11, absence of cycloheximide
Experimental: Referring to FIG. 25, semiconfluent cultures of glioma and prostate cancel cell lines were treated with the 1 mM POH in the presence or absence of the anti-CD95 antibody CH11 (100 ng/ml), radiation (8.5 Gy for T98G, U87MG, U373 and 5.5 Gy for PC3 and DU145), cycloheximide (CX) or a combination of all for a period of 72 hours. Cells treated with cycloheximide and anti-Fas served as a positive control. The death by treating cells with 1 mM POH or radiation alone was also quantitated. The estimation of apoptosis was done by staining the harvested cells with propidium iodide as described before. Each graphed point in the figure represents the average values of duplicate samples.

[6] = test system: T98G and U87MG cell lines; experiment: Inhibition of Fas-induced apoptosis by antagonistic antibody ZB4; type: cell-based; settings: 1 mM POH with CH11, absence of cycloheximide; inhibited by ZB4
Experimental: Referring to FIG. 26, semiconfluent culture plates T98G and U87MG cell lines were treated with the 1 mM POH in the presence or absence of the anti-CD95 antibody CH11 (100 ng/ml), cycloheximide (CX), the Fas-induced apoptosis blocking antibody ZB4 (2 ug/ml) or a combination of all for a period of 72 hours. Viability analysis was carried out using propidium iodide solution by flow cytometric analysis. Each graphed point in the figure represents the average values of duplicate samples.

T98G cells = experiment: Clonogenic survival, POH pretreatment then cisplatin, T98G; type: cell-based, human; settings: POH 0.1 mM–0.5 mM 48 hours then cisplatin 0.05 uM–1 uM 48 hours
Experimental: Referring to FIG. 28, subconfluent cells of T98G cells were treated with varying concentrations of perillyl alcohol (0.1 mM–0.5 mM) for 48 hours and subsequently treated with the indicated dose of cisplatin (0.05 uM–1 uM) for 48 hours. At the end of the treatment, POH pretreated and untreated cells in the presence and absence of cisplatin, were harvested, washed with PBS, plated at the desired cell number and incubated for two weeks. The colonies were stained with crystal violet and quantitated. Survival was determined as the ratio of plating efficiencies for each irradiated group to that of the untreated control.

rat mammary carcinoma = settings: cited from earlier work; for regression of rat mammary carcinoma: dietary administration
pancreatic carcinoma = settings: POH-fed hamsters; control animals showed tumor growth; cited from earlier work

In the case of `C=C(C)[C@@H]1CC=C(CO)CC1` [POH, Perillyl alcohol], the “% SURVIVAL” value ([1]; 0.1 mM POH 72 h, no radiation) is reported as 0.648 ± 0.008%, the “% SURVIVAL” value ([1]; 0.1 mM POH + 5.5 Gy) is reported as 0.044 ± 0.00157% and the “% SURVIVAL” value ([1]; 0.3 mM POH 72 h, no radiation) is reported as 0.456 ± 0.0112%. For the same compound, the “% SURVIVAL” value ([1]; 0.3 mM POH + 5.5 Gy) was 0.026 ± 0.00076%, the “% SURVIVAL” value ([1]; 0.5 mM POH 72 h, no radiation) was 0.207 ± 0.005% and the “% SURVIVAL” value ([1]; 0.5 mM POH + 5.5 Gy) was 0.017 ± 0.005%. The “% SURVIVAL” value ([2]; 0.1 mM POH 72 h, no radiation) was 0.734 ± 0.038%, the “% SURVIVAL” value ([2]; 0.1 mM POH + 5.5 Gy) was 0.007 ± 0.0009% and the “% SURVIVAL” value ([2]; 0.3 mM POH 72 h, no radiation) was 0.366 ± 0.017%. The “% SURVIVAL” value ([2]; 0.3 mM POH + 5.5 Gy) was 0.003 ± 0.0058%, the “% SURVIVAL” value ([2]; 0.5 mM POH 72 h, no radiation) was 0.244 ± 0.009% and the “% SURVIVAL” value ([2]; 0.5 mM POH + 5.5 Gy) was 0.001 ± 0.00067%. For the same compound, the “% SURVIVAL” value (DLD-1 colon cancer cells; 0.1 mM POH 72 h, no radiation) was 1.690 ± 0.100%, the “% SURVIVAL” value (DLD-1 colon cancer cells; 0.1 mM POH + 5.5 Gy) was 0.038 ± 0.009% and the “% SURVIVAL” value (DLD-1 colon cancer cells; 0.3 mM POH 72 h, no radiation) was 0.899 ± 0.070%. The “% SURVIVAL” value (DLD-1 colon cancer cells; 0.3 mM POH + 5.5 Gy) was 0.050 ± 0.003%, the “% SURVIVAL” value (DLD-1 colon cancer cells; 0.5 mM POH 72 h, no radiation) was 0.019 ± 0.001% and the “% SURVIVAL” value (DLD-1 colon cancer cells; 0.5 mM POH + 5.5 Gy) was 0.001 ± 0.001%. For the same compound, the “early and late apoptotic cells (annexin V/PI)” value [3] was “increase in the percentage of early as well as late apoptotic cells”, the cell cycle effect ([4]; MO59K) was “G0/G1 block” and the cell cycle effect ([4]; all the cell lines except MO59K) was “block in the G2/M phase”. For the same compound, the “sensitization to Fas mediated apoptosis” value [5] was “sensitized”, the Fas-mediated apoptosis [6] was “augmented Fas-mediated apoptosis” and the “sensitization to cisplatin-induced cell death” value (T98G cells) was “dose-dependent sensitization”. For the same compound, the “potency at inducing tumor regression relative to limonene” value (rat mammary carcinoma; dietary) was “greater than five times more potent than limonene”, the “regression of rat mammary carcinoma” value (rat mammary carcinoma; induced by DMBA) was 84% and the “regression of rat mammary carcinoma” value (rat mammary carcinoma; induced by NMU) was 60%. For the same compound, the “antitumor effect in pancreatic carcinoma models” value (pancreatic carcinoma) was “either regression or no growth of the tumors”.
